The source of these data is PubChem BioAssay AID2305 (GlaxoSmithKline (GSK), 2010).

Several values for one entry are separate records, joined by “and”; a condition that tells them apart may be missing. Equal values may be shown once.

For the test, the system named is P. falciparum 3D7 growth, pLDH absorbance. Put plainly: blood-stage malaria parasite growth potency – strain 3D7, dose response (AID 2305).
As usually defined, the IC50 is the concentration that gives 50% inhibition. With `COc1ccc(Nc2ncc3c(-c4cccc(NC(=O)c5ccc(N)cc5)c4)c[nH]c3n2)cc1OC`, the IC50 was 970 nM.
The value for `Cc1ccc(/C=C/C(=O)NC2CCC(CN3CCC(c4c[nH]c5ccccc45)CC3)CC2)cc1C` (stereo not drawn) was 820 nM and 830 nM.
To `CCOc1ccc2c(NN=Cc3ccccn3)cc(C)nc2c1` belongs 860 nM.
The value for `O=C(c1ccccc1F)N(Cc1ccc(Cl)cc1)c1ccccn1` was 1020 nM; that for `C[C@@H]1CN(c2cnn(Cc3ccc(NC(=O)Nc4ccc(F)cc4[N+](=O)[O-])cc3)c(=O)c2Cl)C[C@H](C)N1` was 810 nM.
As for `O=C(/C=C/c1ccc(Cl)c(Cl)c1)NCCCCCN1CCC(NC(=O)Nc2cc(Cl)nc(Cl)c2)CC1`, the IC50 was 980 nM.
The value for `CC[C@H]1CN2CC[C@H]1C[C@H]2[C@H](O)c1cc(-c2ccccc2C(F)(F)F)nc2ccc(OC)cc12` was 230 nM; that for `CCCc1c(C(=O)OCC)c2cc(O)ccc2n1-c1ccc(OC)cc1` was 140 nM.
The value for `N#Cc1ccc(NC(=O)NC2CCN(CCCCCNC(=O)/C=C/c3ccc(Cl)c(Cl)c3)CC2)cc1` was 800 nM.
To `CC(C)c1cn2c3c(cc(C(=O)N[C@@H](Cc4ccccc4)[C@H](O)CNC4CCOCC4)cc13)N(C)S(=O)(=O)CC2` belongs 50 nM; to `NC(=O)c1cnc2cc(-c3ccoc3)ccc2c1Nc1ccc(NC(=O)Nc2ccccc2Cl)cc1`, 540 nM.
`CC(Cc1ccc(-c2nc3ccccc3[nH]2)cc1)NCC(O)c1cccc(C(F)(F)F)c1` (stereo not drawn) showed an IC50 of 350 nM. Against the preceding molecule, the IC50 is about 1.5-fold lower.
The value for `CS(=O)(=O)c1ccc(-c2cnc(N)c(-c3cccc(CO)c3)c2)cc1` was 940 nM; that for `CCOc1cc(-c2nnc3[nH]c(=O)n(C)c(=O)c3n2)ccc1OC(C)C` was 400 nM; that for `FC(F)(F)c1cc(Nc2ncnc3ccc(Br)cc23)ccc1OCc1ccccc1` was 1080 nM.
In turn, `CCNc1cc(C(=O)N[C@@H](Cc2ccccc2)[C@H](O)CNC23CCC(CC2)CC3)cc(N2CCCCS2(=O)=O)c1` returned an IC50 of 60 nM.
`COc1cc(Nc2nccc(N3CCC(NC(=O)Nc4ccc5c(c4)OCO5)C3)n2)cc(OC)c1OC` (stereo not drawn) gave an IC50 of 760 nM. This IC50 is about 13-fold higher than that of the molecule before.
To `Cn1c(N)c(N=O)c(=O)[nH]c1=O` belongs 180 nM; to `O=C(NC1CCCc2ccccc21)[C@@H]1CCCN1C(=O)c1ccc(O)c(-c2ccc(Cl)c(Cl)c2)c1` (stereo partly drawn), 210 nM.
`Cc1ccc(NC(=O)NC2CCN(CCCCCNC(=O)/C=C/c3ccc(Cl)c(Cl)c3)CC2)cc1C`: the IC50 was 730 nM.
The value for `CCCCNC[C@@H](O)[C@H](Cc1ccccc1)NC(=O)c1cc2c3c(c1)c(CC)cn3CCS(=O)(=O)N2C` was 200 nM; that for `O=C(N[C@H]1CCN(CCc2ccc(O[C@H]3CCNC3)c(Cl)c2)C1)c1ccc(Cl)c(Cl)c1` was 890 nM.
To `O=C(NC1CCN(CC2(c3ccc(Cl)cc3)CCC2)CC1)c1ccn[nH]1` belongs 420 nM; to `CC(C)CCNc1nc(NCCCc2ccccc2)c2cc(O)ccc2n1`, 170 nM; to `COc1cccc(OC2CCN(C(=O)c3cc(C(C)(C)C)nn3Cc3ccccc3)CC2)c1`, 250 nM.
On to `N#Cc1ccc(N2CCN(Cc3cccc(-c4cccc(-c5nc6ccc(F)cc6[nH]5)c4)c3)CC2)nc1`, for which the 50% inhibitory concentration (IC50) stood at 960 nM.
`CC(CN)OCn1cnc2c(N)ncnc21` (stereo not drawn) registered a half-maximal inhibitory concentration (IC50) of 230 nM.
To `CO/C=C(/C(=O)OC)c1ccccc1Oc1cc(Oc2ccccc2C#N)ncn1` belongs 40 nM; to `CCn1cnc2c(N3CCCCS3(=O)=O)cc(C(=O)N[C@@H](Cc3ccccc3)[C@H](O)CNC3CCOCC3)cc21`, 710 nM; to `CC(C)(C)c1ccc(CN2CCC(NC(=O)c3ccc(-c4ccccc4F)s3)CC2)cc1`, 1200 nM.
The value for `CN(C)c1nc(NN=Cc2cc(Cl)ccc2O)nc(Nc2ccc(F)cc2)n1` was 840 nM; that for `Cc1ccc(N2C(N)=NC(N)=NC2(C)C)cc1Cl` was 10 nM; that for `OC1(CNCc2ccccc2)CCN(CCc2c[nH]c3ccc(F)cc23)CC1` was 710 nM.
The value for `Nc1nc(N)c2c(ccc3nn(Cc4ccccc4)cc32)n1` was 210 nM; that for `O=C(NCC1CN(Cc2ccc(N3CCCC3)o2)CCCO1)c1ccc2c(c1)OCO2` (stereo not drawn) was 840 nM.
With `O=C(NCC1CCN(CC2CCCCC2)C1)c1cc(-c2cccc(C(F)(F)F)c2)cs1` (stereo not drawn), the IC50 was determined as 740 nM.
The value for `COc1ccc(C2(CNCC(O)c3cccc([N+](=O)[O-])c3)CCCC2)cc1OC` (stereo not drawn) was 890 nM; that for `CCN(CC)CCCC(C)Nc1ccnc2ccc(-c3ccccc3)cc12` (stereo not drawn) was 650 nM.
The value for `Cc1nc(Nc2ccc(C)c(Cl)c2)c2c(C)noc2n1` was 890 nM; that for `CCN(CC)CCN(Cc1ccc(-c2ccc(C(F)(F)F)cc2)cc1)C(=O)Cn1c(CCc2cccc(F)c2F)cc(=O)c(C)c1C` was 620 nM.
`COc1ccc2[nH]cc(C3CCN(CCCCNC(=O)c4ccc(NC(=O)c5ccc(Cl)cc5)cc4)CC3)c2c1` yielded an IC50 of 1020 nM.
To `Cc1nc(-c2cccc(NCc3ccccc3)c2)[nH]c1C` belongs 860 nM; to `N#Cc1ccc(-c2ccc(C(=O)NCCCCN3CCC(c4ccc5c(c4OCc4ccccn4)CCCC5)CC3)cc2)cc1`, 820 nM.
Molecule `Oc1ccc(CN2CCC(NCc3cccc(C(F)(F)F)c3)CC2)cc1` returned an IC50 of 680 nM.
The value for `COc1cc2nc(N3CCC(C(N)=O)CC3)nc(NCc3ccccc3)c2cc1OC` was 890 nM.
To `CN(C)CC1CCCN1Cc1ccccc1-c1cnn(C)c(=O)c1Oc1ccc(F)cc1` (stereo not drawn) belongs 1220 nM; to `CCCNC[C@@H](O)[C@H](Cc1ccccc1)NC(=O)c1cc(NCC)cc(N2CCCC2=O)c1`, 760 nM.
To `Nc1ccc2nc(C=Cc3ccc(Cl)cc3)[nH]c2c1` belongs 940 nM; to `COc1ccc(CN(C)CC(O)COc2ccc(NC(=O)c3cccc4c(=O)c5cccc(OC)c5[nH]c34)cc2)cc1OC` (stereo not drawn), 780 nM; to `CC(C)(C)c1ccc(-c2ccccc2CNC(=O)c2cccc(O)c2)cc1`, 270 nM.
With `c1ccc2c(NCCCCCCCNc3ccnc4ccccc34)ccnc2c1`, the concentration for half-maximal inhibition (IC50) worked out at 170 nM. Compared with the last molecule, the IC50 is about 1.6-fold lower.
To `CCc1cc(NCc2ccncc2)nc(Nc2ccc(F)cc2)n1` belongs 1330 nM; to `CCCCNC(=O)[C@H](CC1CCCCC1)NC(=O)c1ccc(O)c(-c2cccc(C(F)(F)F)c2)c1`, 770 nM; to `COc1ccc(-c2cnc3[nH]cc(-c4ccc(C(=O)O)c(C)c4)c3c2)cn1`, 310 nM.
For `O=C(/C=C/c1ccc(Cl)c(Cl)c1)NCCCCN1CCCN(C(=O)Nc2ccc(Cl)c(Cl)c2)CC1`, the IC50 was found to be 860 nM.
To `COc1cc(C(=O)NCCCN2CCN(c3cccc(Cl)c3)CC2)ccc1-c1cc2cc(Cl)c(Cl)cc2[nH]1` belongs 470 nM; to `O=C(/C=C/c1ccc(Cl)c(Cl)c1)NCCCCCN1CCC(CCNC(=O)C2(c3ccc(Cl)cc3)CC2)CC1`, 920 nM.
To `COc1ccc(CNc2ccc3nc(N)nc(N)c3c2)cc1` belongs 170 nM; to `O=C(/C=C/c1ccc2ccccc2c1)NC1CCC(CN2CCC(c3c[nH]c4ccccc34)CC2)CC1` (stereo not drawn), 730 nM.
The value for `CCCCCN1CCC(NS(=O)(=O)c2ccc(C(=O)Nc3cccc(C(F)(F)F)c3)cc2)C1` (stereo not drawn) was 1000 nM; that for `O=c1cc(NCCCNCc2cc(Cl)cc(Cl)c2OCc2ccc(Cl)cc2)[nH]c2ccccc12` was 690 nM; that for `CC(C(=O)N1CCCC1)N1CCN(C(c2ccccc2)c2ccccc2)CC1` (stereo not drawn) was 1100 nM.
Turning to `Cc1cc(-c2ccc(O)c(CNC3CCCCC3)c2)cnc1N`, the IC50 worked out at 200 nM.
The value for `Nc1ncc(Cc2cc(Cl)c(N)c3ncccc23)c(N)n1` was 1120 nM.
As for `COc1ccc(OC)c(Cc2cnc3nc(N)nc(N)c3c2C)c1`, the IC50 stood at 10 nM.
The molecule `O=C(NC(=S)NCc1ccncc1)c1ccccc1` yielded an IC50 of 1690 nM.
To `CCOC(=O)c1c[nH]c2c(sc3cc(OC)ccc32)c1=O` belongs 390 nM; to `O=C(NCCCCN1CCC(c2ccc(OC(F)(F)F)cc2)CC1)c1ccc(NC(=O)c2ccc(Cl)cc2)cc1`, 630 nM; to `COc1ccc2nccc([C@@H](O)CN3CCC(NCc4cc5cccc(OC)c5o4)CC3)c2c1`, 790 nM.
In turn, `NC1CCCN(Cc2ccc(-c3ccc(-c4nc5ccccc5[nH]4)s3)cc2)C1` (stereo not drawn) yielded an IC50 of 670 nM.
The value for `O=C(NC1CCC(CN2CCC(c3c[nH]c4ccccc34)CC2)CC1)c1cc2ccccc2s1` (stereo not drawn) was 730 nM.
`Cc1cc(N2CCN(C)CC2)nc2ccc(NC(=O)c3cccc(N(C)C)c3)cc12` yielded an IC50 of 950 nM.
To `Nc1nc(N)c2c(ccc3c2ccn3Cc2ccc(F)cc2)n1` belongs 10 nM; to `O=[N+]([O-])c1ccc(-c2ccc(C=NNc3nc(Nc4ccccc4)nc(Nc4ccccc4)n3)o2)cc1`, 1430 nM; to `COc1ccc2nc(C)cc(NN=Cc3cccc(Cl)c3)c2c1`, 630 nM.
To `c1ccc(C2CCN(Cc3ccc(-c4c[nH]c5nc(NC6CCCC6)ncc45)cc3)CC2)cc1` belongs 1010 nM; to `COc1ccc2nccc([C@@H](O)CN3CCC(NC(=O)C(c4cccs4)N4CCN(c5ccc(F)cc5)CC4)CC3)c2c1` (stereo partly drawn), 820 nM.
To `CN(c1ccc2c(c1)nc(NCc1ccc(F)cc1)n2C)c1ccnc(Nc2ccc(CS(C)(=O)=O)cc2)n1` belongs 830 nM; to `CCCCN(CCCC)CCOc1cc2c(cc1OC)CCN2C(=O)/C=C/c1ccccc1Cl`, 1180 nM.
As to `CN1CCN(CCCN(Cc2csc(-c3ccc(CNCc4ccccc4)cc3)n2)S(=O)(=O)c2ccccc2)CC1`, the IC50 is 770 nM. This IC50 lies about 1.5-fold lower than the previous one.
The value for `CC(C)(C)c1ccc(CN2CCCCC(NC(=O)c3cc(-c4ccccc4F)cs3)C2)cc1` (stereo not drawn) was 270 nM.
In the case of `Cc1cc(C2CCN(CCCCNC(=O)c3ccc(NC(=O)c4ccc(Cl)cc4)cc3)CC2)c(C)cc1OCCN(C)C`, the IC50 is 770 nM.
The value for `COc1cc(NC(=O)Nc2cccc3ccccc23)c(OC)cc1Cl` was 480 nM; that for `c1ccc(CNc2nc(NCCN3CCCCC3)nc3ccccc23)cc1` was 1020 nM.
The value for `c1ccc(CN2CCC(NCc3ccc(-c4cncc5ccccc45)cc3)CC2)cc1` was 880 nM.
Molecule `COc1cc2nc(Nc3ccc(C)cc3)nc(Nc3ccc(C)cc3)c2cc1OC` registered an IC50 of 140 nM.
Turning to `COc1ccc2ccccc2c1CNCC1CCN(CC2CCCCC2)CC1`, the IC50 came out at 760 nM.
With `Cc1cc(NCc2ccc(F)cc2)nc2cc(O)ccc12`, the IC50 was 760 nM. This lies in the sub-micromolar range.
